As usually defined, the melting point is the temperature of the solid-liquid transition.

The values below come from US20060128769A1, “Thiazoyl biphenyl amides” (priority 2002, published 2006).

The test system of one data set is Sphaerotheca fuliginea. As to the kind of experiment: Sphaerotheca test (cucumber)/protective. As to conditions: Podosphaera fuliginea, 168 h, protective, application rate 100 g/ha, evaluation 7 days after inoculation, read-out: % efficacy. Format: in vivo. As for the experimental part: • Solvents: 24.5 parts by weight of acetone 24.5 parts by weight of dimethylacetamide • Emulsifier: 1 part by weight of alkylaryl polyglycol ether
(§1) To produce a suitable preparation of active compound, 1 part by weight of active compound is mixed with the stated amounts of solvents and emulsifier, and the concentrate is diluted with water to the desired concentration.
To test for protective activity, young plants are sprayed with the preparation of active compound at the stated application rate. After the spray coating has dried on, the plants are inoculated with an aqueous spore suspension of Sphaerotheca fuliginea. The plants are then placed in a greenhouse at about 23° C. and a relative atmospheric humidity of about 70%.
Evaluation is carried out 7 days after the inoculation. 0% means an efficacy which corresponds to that of the control, whereas an efficacy of 100% means that no infection is observed.

The next data set concerns Botrytis cinerea. Kind of data set: Botrytis test (bean)/protective. It is filed as in vivo. Particulars: 48 h, protective, application rate 500 g/ha, evaluation 2 days after inoculation, read-out: % efficacy. On the procedure: (§2) • Solvents: 24.5 parts by weight of acetone 24.5 parts by weight of dimethylacetamide • Emulsifier: 1.0 part by weight of alkylaryl polyglycol ether
as §1
To test for protective activity, young plants are sprayed with the preparation of active compound at the stated application rate. After the spray coating has dried on, 2 small pieces of agar colonized by Botrytis cinerea are placed onto each leaf. The inoculated plants are placed in a dark chamber at about 20° C. and 100% relative atmospheric humidity.
2 days after the inoculation, the size of the infected areas on leaves is evaluated. 0% means an efficacy which corresponds to that of the control, whereas an efficacy of 100% means that no infection is observed.

The test system of a further data set is Venturia inaequalis. Kind of data set: Venturia test (apple)/protective. Particulars: 240 h, protective, application rate 100 g/ha, evaluation 10 days after inoculation, read-out: % efficacy. It is filed as in vivo. On the procedure: as §2, §1
To test for protective activity, young plants are sprayed with the preparation of active compound at the stated application rate. After the spray coating has dried on, the plants are inoculated with an aqueous conidia suspension of the apple scab pathogen Venturia inaequalis and then remain in an incubation cabin at about 20° C. and 100% relative atmospheric humidity for one day.
The plants are then placed in a greenhouse at about 21° C. and a relative atmospheric humidity of about 90%.
Evaluation is carried out 10 days after the inoculation. 0% means an efficacy which corresponds to that of the control, whereas an efficacy of 100% means that no infection is observed.

Data set [1] can be described thus: logP determination by HPLC on a reversed-phase column (C 18), EEC Directive 79/831 Annex V.A8. Format: physicochemical. Particulars: reversed-phase HPLC column (C 18). On the procedure: The logP values given in the preparation examples and tables above are determined in accordance with EEC Directive 79/831 Annex V.A8 by HPLC (High Performance Liquid Chromatography) using a reversed-phase column (C 18). Temperature: 43° C. The determination is carried out in the acidic range at pH 2.3 using the mobile phases 0.1% aqueous phosphoric acid and acetonitrile; linear gradient from 10% acetonitrile to 90% acetonitrile. Calibration is carried out using unbranched alkan-2-ones (having 3 to 16 carbon atoms) with known logP values (determination of the logP values by the retention times using linear interpolation between two successive alkanones).

A further data set has as its system Alternaria solani. As to the kind of experiment: Alternaria test (tomato)/protective. Format: in vivo. Particulars: 168 h, protective, application rate 750 g/ha, evaluation 7 days after inoculation, read-out: % efficacy. As for the experimental part: • Solvent: 49 parts by weight of N,N-dimethylformaide • Emulsifier: 1 part by weight of alkylaryl polyglycol ether To produce a suitable preparation of active compound, 1 part by weight of active compound is mixed with the stated amounts of solvent and emulsifier, and the concentrate is diluted with water to the desired concentration. To test for protective activity, young tomato plants are sprayed with the preparation of active compound at the stated application rate. 1 day after the treatment, the plants are inoculated with an aqueous spore suspension of Alternaria solani and then remain at 100% relative humidity for 24 hours. The plants then remain at about 96% relative atmospheric humidity and a temperature of 20° C. Evaluation is carried out 7 days after the inoculation. 0% means an efficacy which corresponds to that of the control, whereas an efficacy of 100% means that no infection is observed.

Where [2] appears, read: pH 2.3, HPLC reversed-phase C 18, 43° C., 0.1% aqueous phosphoric acid/acetonitrile, read-out: logP (pH 2.3).
Where [3] appears, read: Table 1, acidic range pH 2.3, HPLC reversed-phase C 18, 43° C., read-out: logP.

Read-outs that look alike come from different tables or passages of the source.

Regarding `CC(=O)N(C(=O)c1sc(C)nc1C(F)F)c1ccccc1-c1ccc(Br)cc1` [Example 1, N-acetyl-N-(4′-bromo-1,1′-biphenyl-2-yl)-4-(difluoromethyl)-2-methyl-1,3-thiazole-5-carboxamide], the Emax at 100 g/ha with Sphaerotheca fuliginea and in the data set on Venturia inaequalis was 100% each time. Moreover, the Emax at 500 g/ha with Botrytis cinerea was 98%. In data set [1] (setting [2]), the chromatographic logP is 3.61.
On to `Cc1nc(C(F)F)c(C(=O)N(C)c2ccccc2-c2ccc(Cl)cc2)s1` [Example 2], for which, in the data set with Sphaerotheca fuliginea, the Emax at 100 g/ha came out at 95%. The chromatographic logP in data set [1] (setting [2]) turned out to be 3.34.
As to `Cc1nc(C(F)F)c(C(=O)Nc2ccccc2-c2ccc(Br)cc2)s1` [II-1, N-(4′-bromo-1,1′-biphenyl-2-yl)-2-methyl-4-(difluoromethyl)-1,3-thiazole-5-carboxamide], the melting point was found to be 151 °C. In addition, in data set [1] (setting [2]), the chromatographic logP is 3.34.
`Cc1nc(C(F)F)c(C(=O)N(C)c2ccccc2-c2ccc(Br)cc2)s1` [Example 6]: in the data set on Sphaerotheca fuliginea, the Emax at 100 g/ha came out at 100%. For the same compound, in data set [1] (setting [3]), the chromatographic logP is 3.44.
With `Cc1nc(C(F)F)c(C(=O)N(C(=O)c2sc(C)nc2C(F)F)c2ccccc2-c2cc(Cl)cc(Cl)c2)s1` [Example 4], the Emax at 100 g/ha was 100% with Sphaerotheca fuliginea and 99% in the data set on Venturia inaequalis. For the same compound, the Emax at 500 g/ha in the data set with Botrytis cinerea amounted to 94%. In the data set on Alternaria solani, the Emax at 750 g/ha is 95%. The chromatographic logP in data set [1] (setting [3]) stood at 4.28.
Compound `Cc1nc(C(F)F)c(C(=O)Nc2ccccc2-c2ccc(Cl)cc2)s1` [II-2, N-(4′-chloro-1,1′-biphenyl-2-yl)-2-methyl-4-(difluoromethyl)-1,3-thiazole-5-carboxamide] returned a melting point of 144 °C. Moreover, in data set [1] (setting [2]), the chromatographic logP came out at 3.26.
